# pIC50: −log10 of the molar value.
# Experiments:
# [1] = tested on: rhabdomyosarcoma (RD) cells; experiment: Assay for inhibition of cell proliferation (MTT), rhabdomyosarcoma cells; type: cell-based, human; details: for RD Ratio (paclitaxel/compound): ratio of paclitaxel IC50 to compound IC50, RD cells; for pIC50: rhabdomyosarcoma (RD) cells, MTT, 96 h incubation
# Protocol: (§1) Human rabdomyosarcoma (RD) and mouse neuroblastoma (N1E115) cell lines were obtained from the American Type Culture Collection (ATCC, Rockville, Md.). The RD cells were grown in Dulbecco's modified eagle medium (DMEM) supplemented with 4 mM glutamine, containing 10% fetal bovine serum (ATCC #30-2020) and supplemented with 1% penicillin and 1% streptomycin. When confluent, the cells were maintained by passage (about once per week) until needed. The N1E115 line was also cultured in DMEM with 4 mM glutamine containing 10% newborn calf serum (Gibco, Grand Island, N.Y.) and likewise maintained.
# (§2) The proliferation of rhabdomyosarcoma cells was determined using a cell proliferation assay kit based on the formation of insoluble formazan crystals from 3-(4,5-dimethylthiazol-2-yl)-2,5-diphenyltetrazolium bromide (MTT). The rhabdomyosarcoma cells were cultured to a density of 10^5 cells per mL. The cell culture (100 μL) was dispensed into wells of a 96-well plate to 10^4 cells per well. The plate was incubated at 37° C. for 3 h until the cells firmly attached to the well surfaces.
# (§3) A second 96-well round bottom plate was made up containing the test compounds, serially diluted to cover the concentration range of interest using the DMEM medium plus antibiotics. The final concentration of DMSO in which the compounds were initially dissolved was maintained at a constant 0.5% in each well and the volume of the compounds in the plate was 220 μL. Following the 3 h incubation the medium was removed from the plate containing the cells and replaced with 200 μL of the solutions containing the compounds. The cells were incubated for a further 96 h before the assessment of growth inhibition using MTT.
# (§4) The cells were left bathing in 100 μL of the saline solution to which was added 100 μL of MTT in saline (12 mM). Incubation was continued for 4 h at 37° C. to produce the blue formazan color which was quantified by optical density measurements at 570 nm. Background correction of all test wells was performed by subtraction of the yellow MTT solution color measured at 570 nm in cell-free wells. The data were normalized to solvent only control wells.
# [2] = tested on: neuroblastoma (N1E115) cells; experiment: Assay for inhibition of cell proliferation (MTT), neuroblastoma cells; type: cell-based, mouse; details: for pIC50: neuroblastoma (N1E115) cells, MTT; for N1E115 Ratio (paclitaxel/compound): ratio of paclitaxel IC50 to compound IC50, N1E115 cells
# Protocol: as §1, §2, §3, §4
pIC50 [1],pIC50 [2],melting point [°C],pIC50 ([1]; Homo sapiens),"pIC50 ([2]; Mus musculus, N1E-115)",SMILES,RD Ratio (paclitaxel/compound) [1],N1E115 Ratio (paclitaxel/compound) [2]
–,–,73 to 77,–,–,"CCC(C)Cn1c(-c2ccc(F)cc2F)c(C)nc(C#N)c1=N (stereo not drawn) [Compound 471, 5-(2,4-Difluorophenyl)-3,4-dihydro-3-imino-6-methyl-4-(2-methylbutyl)pyrazinecarbonitrile]",–,–
–,–,–,7.77,7.06,"CC(=O)O[C@H]1C(=O)[C@@]2(C)[C@H]([C@H](OC(=O)c3ccccc3)[C@]3(O)C[C@H](OC(=O)[C@H](O)[C@@H](NC(=O)c4ccccc4)c4ccccc4)C(C)=C1C3(C)C)[C@]1(OC(C)=O)CO[C@@H]1C[C@@H]2O [paclitaxel, reference compound]",–,–
6.58,6.34,–,–,–,CCC(C)Cn1c(-c2ccc(OCCN(C)C)cc2F)c(Cl)nc(-n2cccn2)c1=O (stereo not drawn) [Compound 477],0.06,0.19
–,–,–,8.49,7.52,"CN(C)CCCOc1cc(F)c(-c2c(Cl)nc(-n3cccn3)c(=O)n2CC2CC2)c(F)c1 [Compound 481, 5-chloro-1-cyclopropylmethyl-6-[4-[3-(dimethylamino)propoxy]-2,6-difluorophenyl]-3-(1H-pyrazol-1-yl)-2(1H)-pyrazinone]",5.37,2.93
–,–,147 to 149,–,–,"O=c1c(-n2cccn2)nc(Cl)c(-c2c(F)cc(F)cc2F)n1CC(F)(F)C(F)(F)F [Compound 468, 5-Chloro-1-(2,2,3,3,3-pentafluoropropyl)-3-(1H-pyrazol-1-yl)-6-(2,4,6-trifluorophenyl)-2(1H)-pyrazinone]",–,–
–,–,112 to 113,7.70,7.12,"CC[C@H](C)Cn1c(-c2c(F)cc(F)cc2F)c(Cl)nc(-n2cccn2)c1=O [Compound 155, 5-Chloro-1-[(2S)-2-methylbutyl)-3-(1H-pyrazol-1-yl)-6-(2,4,6-trifluorophenyl)-2(1H)-pyrazinone]",0.85,1.17
8.00,6.55,–,–,–,CC[C@H](C)Cn1c(-c2c(F)cc(OCCN(C)C)cc2F)c(Cl)nc(C(N)=O)c1=O [Compound 484],1.70,0.31
–,–,235 to 236,–,–,"COc1ccc(Cn2c(-c3c(F)cccc3F)c(Cl)nc(-n3cccn3)c2=O)cc1 [Compound 271, 5-Chloro-6-(2,6-difluorophenyl)-1-[(4-methoxyphenyl)methyl]-3-(1H-pyrazol-1-yl)-2(1H)-pyrazinone]",–,–
7.05,6.77,–,–,–,O=c1c(-n2cccn2)nc(Cl)c(-c2c(F)cc(F)cc2F)n1CC1CC1 [Compound 460],0.19,0.52
–,–,105 to 106,–,–,"Cc1nc(-n2cccn2)c(=O)n(CC(C)C)c1-c1c(F)cccc1F [Compound 149, 5-Methyl-6-(2,6-difluorophenyl)-1-(2-methylpropyl)-3-(1H-pyrazol-1-yl)-2(1H)-pyrazinone]",–,–
7.11,6.74,–,–,–,Cc1ccn(-c2nc(Cl)c(-c3c(F)cc(OCCCN(C)C)cc3F)n(CC(C)C)c2=O)n1 [Compound 497],0.22,0.49
–,–,–,6.70,7.60,"CCC(C)Cn1c(-c2c(F)cc(OCCN(C)C)cc2F)c(Cl)nc(-n2cccn2)c1=O (stereo not drawn) [Compound 479, 5-Chloro-6-[4-[2-(dimethylamino)ethoxy]-2,6-difluorophenyl]-1-(2-methylbutyl)-3-(1H-pyrazol-1-yl)-2(1H)-pyrazinone]",0.09,3.52
–,–,137 to 139,6.64,6.15,"CC(C)Cn1c(-c2ccc(F)cc2Cl)c(Cl)nc(-n2cccn2)c1=O [Compound 53, 5-Chloro-6-(2-chloro-4-fluorophenyl)-1-(2-methylpropyl)-3-(1H-pyrazol-1-yl)-2(1H)-pyrazinone]",0.07,0.13
6.33,6.41,–,–,–,CCC(C)Cn1c(-c2c(F)cc(OCCN3CCCC3)cc2F)c(Cl)nc(-n2cccn2)c1=O (stereo not drawn) [Compound 480],0.04,0.22
7.79,6.99,–,–,–,CC[C@H](C)Cn1c(-c2c(F)cc(OC)cc2F)c(Cl)nc(-n2ccc(C)n2)c1=O [Compound 504],1.04,0.86
6.33,5.96,–,–,–,CCC(C)Cn1c(-c2ccc(OCCN3CCCC3)cc2F)c(Cl)nc(-n2cccn2)c1=O (stereo not drawn) [Compound 478],0.04,0.08
–,–,–,6.30,6.96,"CC(C)Cn1c(-c2c(F)cccc2F)c(Cl)nc(-n2cccn2)c1=O [Compound 1, 5-Chloro-6-(2,6-difluorophenyl)-1-(2-methylpropyl)-3-(1H-pyrazol-1-yl)-2(1H)-pyrazinone]",0.03,0.80
7.55,7.66,–,–,–,CN(C)CCCOc1cc(F)c(-c2c(Cl)nc(-n3cccn3)c(=O)n2-c2cccc(F)c2)c(F)c1 [Compound 491],0.60,4.00
7.40,7.09,–,–,–,CC[C@H](C)Cn1c(-c2c(F)cc(OCCN(C)C)cc2F)c(Cl)nc(-n2cccn2)c1=O [Compound 483],0.43,1.09
7.30,7.10,–,–,–,CC[C@H](C)Cn1c(-c2ccc(F)cc2Cl)c(Cl)nc(-n2cccn2)c1=O [Compound 263],0.34,1.10
–,–,–,9.40,8.89,"CC[C@H](C)Cn1c(-c2c(F)cc(OCCCNC)cc2F)c(Cl)nc(-n2ccc(C)n2)c1=O [Compound 494, 5-chloro-6-[2,6-difluoro-4-[3-(methylamino)propoxy]phenyl]-1-[(2S)-2-methylbutyl]-3-(3-methyl-1H-pyrazol-1-yl)-2(1H)-pyrazinone]",42.50,67.69
–,–,100 to 102,–,–,"CC(C)Cn1c(-c2c(F)cccc2F)c(Cl)nc(C#N)c1=O [Compound 5, 6-Chloro-5-(2,6-difluorophenyl)-3,4-dihydro-4-(2-methylpropyl)-3-oxopyrazinecarbonitrile]",–,–
–,–,191 to 193,–,–,"CC(C)Cn1c(-c2c(F)cccc2F)c(Cl)nc(-c2cn(C)cn2)c1=O [Compound 85, 5-Chloro-6-(2,6-difluorophenyl)-1-(2-methylpropyl)-3-(1-methyl-1H-imidazol-4-yl)-2(1H)-pyrazinone]",–,–
–,–,91 to 92,–,–,"CC(C)Cn1c(-c2c(F)cccc2F)cnc(-n2cccn2)c1=O [Compound 342, 6-(2,6-Difluorophenyl)-1-(2-methylpropyl)-3-(1H-pyrazol-1-yl)-2(1H)-pyrazinone]",–,–
–,–,–,9.22,8.35,"CC[C@H](C)Cn1c(-c2c(F)cc(OCCCNC)cc2Cl)c(Cl)nc(-n2cccn2)c1=O [Compound 493, 5-chloro-6-[2-chloro-6-fluoro-4-[3-(methylamino)propoxy]phenyl]-1-[(2S)-2-methylbutyl]-3-(1H-pyrazol-1-yl)-2(1H)-pyrazinone]",28.33,19.56
6.94,6.59,–,–,–,CC[C@H](C)Cn1c(-c2c(F)cc(O)cc2F)c(Cl)nc(-n2cccn2)c1=O [Compound 503],0.15,0.34

SMILES,pIC50 [1],pIC50 [2],melting point [°C],pIC50 ([1]; Homo sapiens),"pIC50 ([2]; Mus musculus, N1E-115)",RD Ratio (paclitaxel/compound) [1],N1E115 Ratio (paclitaxel/compound) [2]
CC(C)Cn1c(-c2c(F)cccc2F)c(Cl)nc(-n2cncn2)c1=O [Compound 3],5.52,6.10,–,–,–,0.01,0.11
